Literature values as cited in patent US20050079205A1, “Oleamide-containing composition for animal consumption” (priority 2003, published 2005).

How the values were obtained:
lactating Jersey cows = details: feed supplemented with up to 3.5% oleamide; cited from earlier work
Holstein cows = details: 4.2% oleamide through feed or ruminal cannula; cited from earlier work

**Q.** Which dry matter intake (lactating Jersey cows) does the source give for `CCCCCCCC/C=C\CCCCCCCC(N)=O` [oleamide, cis-9-octadecenioamide] here?
**A.** reduction in dry matter intake

**Q.** What about the dry matter intake (Holstein cows) of the same molecule?
**A.** reduction in dry matter intake
